In patent US8507469B2, “Azetidin compounds suitable for treating disorders that respond to modulation of the serotonin 5-HT6 receptor” (Abbott GmbH & Co. KG, priority 2007, dated 2013) one finds Ki and Kd data, which are given here for 18 molecules.

Experiment [1] deals with T1, h-5-HT6 receptor (Homo sapiens, UniProt P50406).
T1 construct: expressed in transfected cells
The experiment in a line: 5-HT6 receptor binding assay (displacement of [3H]-LSD). Particulars: HEK293 membranes, 1 nM [3H]-LSD. Here is the method:
(§1) Cells from stable clonal cell lines expressing the corresponding receptor (5-HT6, 1-adrenergic, dopamine D2 or histamine H1 receptors) were washed with PBS (w/o Ca^++, Mg^++) and harvested in PBS with 0.02% EDTA. The cells were collected by centrifugation at 500 g for 10 min. at 4° C., washed with PBS and centrifuged (500 g, 10 min. 4° C.). The pellets were stored at −80° C. until use. For membrane preparation, the thawed cell pellet was resuspended in ice-cold sucrose buffer (0.25 M sucrose, 10 mM Hepes (pH 7.4), 1 mM Phenylmethylsulfonyl fluoride (PMSF) in DMSO, […] Pepstatin-A, 3 mM EDTA, 0.025% Bacitracin) and homogenized with a Branson Sonifier W-250 (Settings: Timer 4; Output Control 3; Duty Cycle constant; 2 to 3 cycles). Cell disruption was checked with the aid of a microscope. Remaining unbroken cells were pelleted at 1.000 g for 10 min. at 4° C. The sucrose buffer supernatant was then centrifuged at 60.000 g for 1 h at 4° C. (Beckman Ultrazentrifuge XL 80). The pellet was resuspended in 30 ml ice-cold Tris buffer (20 mM TRIS (pH 7.4), […] Pepstatin A, 0.1 mM PMSF, 3 mM EDTA) by pipetting through a 10 ml serological pipet and centrifuged for 1 h at 4° C. at 60.000 g. A final resuspension was performed in a small volume of ice-cold Tris buffer (see above) by pressing through a serological pipet followed by ultrasonic treatment with a Branson Sonifier W-250 (Settings: Timer 1; Output Control 3; Duty Cycle constant; 1 cycle). Protein concentration was determined (BCA-Kit; Pierce) and aliquots stored at −80° C. or in liquid nitrogen for long-term storage.
(§2) All receptor binding experiments were carried out in the corresponding assay buffer in a total volume of 200 μl in the presence of various concentrations of test compound (10^−5 M to 10^−9 M, tenfold serial dilution, duplicate determinations). The assays were terminated by filtration on polyethylenimine (PEI 0.1% or 0.3%) presoaked Packard Unifilter Plates (GF/C or GF/B) with a Tomtec MachIII U 96well-plate harvester. After the plates had been dried for 2 h at 55° C. in a drying chamber scintillation cocktail (BetaPlate Scint; PerkinElmer) was added. Radioactivity was measured in a Microbeta Trilux two hours after the addition of the scintillation mixture. Data derived from liquid scintillation counting were analysed by iterative non-linear regression analysis with the use of the Statistical Analysis System (SAS): a program similar to “LIGAND” as described by Munson and Rodbard (Analytical Biochemistry 107, 220-239 (1980).
HEK293 cells stably expressing the h-5-HT6 receptor (NCBI Reference Sequence XM 001435) were cultured in RPMI1640 medium supplemented with 25 mM HEPES, 10% fetal calf serum and 1-2 mM glutamine. The membrane preparation was performed as described in section 1. […] Non-specific binding was defined with 1 μM methiothepin. The binding reaction was carried out for 3.5 h at room temperature. During the incubation, the plates were shaken on a plate shaker at 100 rpm and terminated by filtration on Packard Unifilter GF/C (0.1% PEI) plates, followed by 2 wash cycles with ice-cold 50 mM Tris-HCl, 5 mM CaCl2.
(§3) Data derived from liquid scintillation counting were analyzed by iterative non-linear regression analysis with the use of the Statistical Analysis System (SAS): a program similar to “LIGAND” as described by Munson and Rodbard (Anal. Biochem. 1980, 107, 220-239). Fitting was performed according to formulae described by Feldman (Anal. Biochem. 1972, 48, 317-338). IC50, nH and Ki values were expressed as geometrical mean.

Experiment [2] addresses T2, dopamine D2 receptor (Homo sapiens, UniProt P14416).
T2 construct: expressed in transfected cells
The experiment in a line: Dopamine D2 receptor binding assay (displacement of [125I]-iodospiperone). Particulars: for Ki: HEK293 membranes, 0.01 nM [125I]-iodospiperone. Here is the method: as §1, §2
HEK293 cells stably expressing the dopamine D2 receptor (NCBI Reference Sequence NM_000795) were cultured in RPMI1640 medium supplemented with 25 mM HEPES, 10% fetal calf serum and 1-2 mM glutamine. The membrane preparation was performed as described in section 1. […] On the day of the assay, the membranes were thawed, diluted in assay buffer (50 mM Tris-HCl, 120 mM NaCl, 5 mM MgCl2, 5 mM KCl, 1.5 mM CaCl2, pH 7.4) to a concentration of 15 μg protein/assay and homogenized by gentle vortexing. For inhibition studies, 0.01 nM [^125I]-iodospiperone (PerkinElmer Life Sciences, NEX284) was incubated in the presence of various concentrations of test compound in assay buffer. Non-specific binding was defined with 1 μM haloperidol. The binding reaction was carried out for 1 h at room temperature and terminated by filtration on Packard Unifilter GF/B (0.1% PEI) plates, followed by 6 wash cycles with an ice-cold 7% polyethylenglycol solution.
as §3

In experiment [3] the target is T3, α1-adrenergic receptor (Homo sapiens, UniProt P35348).
T3 construct: expressed in transfected cells
T3 sequence (P35348 1-475 isoform P35348-2): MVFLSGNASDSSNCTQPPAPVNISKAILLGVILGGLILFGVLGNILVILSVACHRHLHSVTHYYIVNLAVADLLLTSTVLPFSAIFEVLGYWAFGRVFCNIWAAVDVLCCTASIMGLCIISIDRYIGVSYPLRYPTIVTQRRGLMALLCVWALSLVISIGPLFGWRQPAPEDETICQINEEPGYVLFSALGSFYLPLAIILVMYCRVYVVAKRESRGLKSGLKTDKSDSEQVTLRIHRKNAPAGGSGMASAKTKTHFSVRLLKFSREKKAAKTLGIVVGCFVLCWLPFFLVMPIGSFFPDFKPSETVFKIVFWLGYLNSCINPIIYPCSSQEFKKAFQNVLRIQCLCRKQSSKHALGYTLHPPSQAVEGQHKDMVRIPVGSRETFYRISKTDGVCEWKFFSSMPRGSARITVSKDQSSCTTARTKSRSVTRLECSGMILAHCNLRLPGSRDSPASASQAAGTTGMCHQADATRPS
The experiment in a line: α1-adrenergic receptor binding assay (displacement of [3H]-prazosine). Particulars: CHO-K1 membranes, 0.1 nM [3H]-prazosine. As for the experimental part:
as §1, §2
CHO-K1 cells stably expressing the 1-adrenergic receptor (NCBI Reference Sequence NM_033303) were cultured in RPMI1640 medium supplemented with 25 mM HEPES, 10% fetal calf serum and 1-2 mM glutamine. The membrane preparation was performed as described in section 1. […] On the day of the assay, the membranes were thawed, diluted in assay buffer (50 mM Tris-HCl, pH 7.4) to a concentration of 4 μg protein/assay and homogenized by gentle vortexing. […] Non-specific binding was defined with 1 μM phentolamine. The binding reaction was carried out for 1 h at room temperature and terminated by filtration on Packard Unifilter GF/C (0.1% PEI) plates, followed by 3 wash cycles with ice-cold assay buffer.
as §3
On the technique in general: In a radioligand displacement assay an active substance lowers the binding of a labelled ligand.

The target in experiment [4] is histamine H1 receptor (Homo sapiens, UniProt P35367). Briefly: H1 receptor binding assay (displacement of [3H]-pyrilamine). The conditions noted are these: CHO-K1 membranes, 1 nM [3H]-pyrilamine. As for the experimental part: as §1, §2
Chain of histamine H1 receptor (P35367 whole entry): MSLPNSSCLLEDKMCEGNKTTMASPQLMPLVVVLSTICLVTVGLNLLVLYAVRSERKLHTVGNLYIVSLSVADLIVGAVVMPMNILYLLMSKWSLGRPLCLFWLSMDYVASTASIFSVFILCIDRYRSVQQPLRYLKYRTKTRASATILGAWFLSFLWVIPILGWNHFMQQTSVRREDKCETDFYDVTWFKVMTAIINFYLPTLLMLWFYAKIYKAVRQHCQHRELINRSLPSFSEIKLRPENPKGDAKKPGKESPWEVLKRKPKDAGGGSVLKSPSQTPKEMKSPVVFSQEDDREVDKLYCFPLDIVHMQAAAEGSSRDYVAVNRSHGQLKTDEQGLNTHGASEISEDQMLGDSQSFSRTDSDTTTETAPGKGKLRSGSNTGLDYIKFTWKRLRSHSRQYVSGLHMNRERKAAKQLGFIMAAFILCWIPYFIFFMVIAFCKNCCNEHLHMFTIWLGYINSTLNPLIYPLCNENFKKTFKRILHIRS
CHO-K1 cells stably expressing the histamine H1 receptor (Euroscreen-ES-390-C, NCBI Reference Sequence NM_000861) were cultured in RPMI1640 medium supplemented with 25 mM HEPES, 10% fetal calf serum and 1-2 mM glutamine. The membrane preparation was performed as described in section 1. […] On the day of the assay, the membranes were thawed, diluted in assay buffer (50 mM Na2HPO4, 50 mM KH2PO4, pH 7.4) to a concentration of 6 μg protein/assay and homogenized by gentle vortexing. […] The binding reaction was carried out for 50 minutes at room temperature and terminated by filtration on Packard Unifilter GF/C (0.3% PEI) plates, followed by 2 wash cycles with ice-cold assay buffer.
as §3

Structures can show the parent of a compound that is named as a salt. A value given as a limit tells only on which side of the number the result lay.

T1 sequence (P50406 whole entry): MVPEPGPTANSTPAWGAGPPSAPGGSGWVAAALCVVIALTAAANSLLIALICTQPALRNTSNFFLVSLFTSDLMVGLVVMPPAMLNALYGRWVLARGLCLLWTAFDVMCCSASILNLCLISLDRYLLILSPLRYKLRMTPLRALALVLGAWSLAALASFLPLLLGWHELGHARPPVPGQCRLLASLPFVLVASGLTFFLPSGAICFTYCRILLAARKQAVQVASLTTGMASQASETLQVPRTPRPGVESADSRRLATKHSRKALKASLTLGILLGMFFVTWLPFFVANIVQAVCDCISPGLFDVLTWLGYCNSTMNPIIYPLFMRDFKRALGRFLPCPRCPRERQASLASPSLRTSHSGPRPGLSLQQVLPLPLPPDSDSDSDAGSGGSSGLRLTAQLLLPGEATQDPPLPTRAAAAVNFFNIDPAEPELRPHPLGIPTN
T2 sequence (P14416 whole entry): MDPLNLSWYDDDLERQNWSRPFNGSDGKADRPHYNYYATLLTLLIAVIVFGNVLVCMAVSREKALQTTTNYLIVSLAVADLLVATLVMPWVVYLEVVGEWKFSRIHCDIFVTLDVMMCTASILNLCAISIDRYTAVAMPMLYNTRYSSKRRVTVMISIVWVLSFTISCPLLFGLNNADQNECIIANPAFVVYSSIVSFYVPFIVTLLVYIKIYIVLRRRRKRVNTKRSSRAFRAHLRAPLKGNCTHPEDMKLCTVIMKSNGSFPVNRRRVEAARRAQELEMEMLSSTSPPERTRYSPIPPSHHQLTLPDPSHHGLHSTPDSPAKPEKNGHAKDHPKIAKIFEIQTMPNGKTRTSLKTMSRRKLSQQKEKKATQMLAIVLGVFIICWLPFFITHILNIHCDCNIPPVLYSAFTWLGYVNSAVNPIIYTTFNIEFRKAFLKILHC

In general, Ki refers to the dissociation constant of the complex between target and ligand, obtained from inhibition or displacement. Read a high Ki as a looser hold on the target. As to `O=S(=O)(c1ccccc1)n1ccc2cc(C3CNC3)ccc21` [compound 2, 5-azetidin-3-yl-1-benzenesulfonyl-1H-indole, hydrochloride], the inhibition constant (Ki) was < 5 nM in experiment [1], > 10000 nM in experiment [2], > 1000 nM in experiment [3] and > 10000 nM in experiment [4].
As for `O=S(=O)(c1ccc(-c2cnco2)cc1)n1ccc2cc(C3CNC3)ccc21` [compound 3, 5-azetidin-3-yl-1-(4-oxazol-5-yl-benzenesulfonyl)-1H-indole, hydrochloride], the inhibitory constant (Ki) is < 250 nM in experiment [1] and > 1000 nM in experiment [2].
As to `CCCN1CC(c2ccc3c(ccn3S(=O)(=O)c3ccc(OC(F)F)cc3)c2)C1` [compound 4, 1-(4-Difluoromethoxy-benzenesulfonyl)-5-(1-propyl-azetidin-3-yl)-1H-indole, hydrochloride], the inhibition constant Ki in experiment [1] is < 50 nM; in experiment [2] it was > 1000 nM; in experiment [3], > 250 nM.
Take `CCCN1CC(c2ccc3c(ccn3S(=O)(=O)c3ccccc3)c2)C1` [compound 5, 1-benzenesulfonyl-5-(1-propylazetidin-3-yl)-1H-indole, hydrochloride]: the Ki was < 5 nM in experiment [1], > 1000 nM in experiment [2], > 250 nM in experiment [3] and > 1000 nM in experiment [4].
`CCCN1CC(c2ccc3c(ccn3S(=O)(=O)c3ccc(-c4cnco4)cc3)c2)C1` [compound 6, 1-(4-oxazol-5-yl-benzenesulfonyl)-5-(1-propylazetidin-3-yl)-1H-indole, hydrochloride]: the results for the Ki in experiment [1] and in experiment [2] were < 250 nM and > 1000 nM, respectively.
For the molecule `O=S(=O)(c1ccccc1)N1CCc2cc(C3CNC3)ccc21` [compound 7, 5-azetidin-3-yl-1-benzenesulfonyl-2,3-dihydro-1H-indole, hydrochloride], the Ki in experiment [1] is < 5 nM; in experiment [2] it was > 10000 nM; in experiment [3] it was > 1000 nM; in experiment [4], > 1000 nM.
Turning to `O=S(=O)(c1ccc(-c2cnco2)cc1)N1CCc2cc(C3CNC3)ccc21` [compound 8, 5-azetidin-3-yl-1-(4-oxazol-5-yl-benzenesulfonyl)-2,3-dihydro-1H-indole], the Ki was < 250 nM in experiment [1] and > 10000 nM in experiment [2].
On to `O=S(=O)(c1cccc(C(F)(F)F)c1)n1ccc2cc(C3CNC3)ccc21` [compound 19, 5-azetidin-3-yl-1-(3-trifluoromethyl-benzenesulfonyl)-1H-indole, hydrochloride], for which the Ki in experiment [1] is < 5 nM; in experiment [2], > 10000 nM; in experiment [3] it was > 1000 nM; in experiment [4] it was > 10000 nM.
Regarding `O=S(=O)(c1cccc(OC(F)(F)F)c1)n1ccc2cc(C3CNC3)ccc21` [compound 20, 5-Azetidin-3-yl-1-(3-trifluoromethoxybenzenesulfonyl)-1H-indole, hydrochloride], the Ki in experiment [1] is < 5 nM; in experiment [2], > 1000 nM; in experiment [3], > 1000 nM; in experiment [4], > 10000 nM.
Take `O=S(=O)(c1cccc(OC(F)F)c1)n1ccc2cc(C3CNC3)ccc21` [compound 21, 5-Azetidin-3-yl-1-(3-difluoromethoxybenzenesulfonyl)-1H-indole, hydrochloride]: the Ki was < 5 nM in experiment [1], > 1000 nM in experiment [2], > 1000 nM in experiment [3] and > 10000 nM in experiment [4].
Turning to `O=S(=O)(c1ccccc1OC(F)(F)F)n1ccc2cc(C3CNC3)ccc21` [compound 23, 5-Azetidin-3-yl-1-(2-trifluoromethoxybenzenesulfonyl)-1H-indole], the Ki is < 5 nM in experiment [1], > 10000 nM in experiment [2], > 1000 nM in experiment [3] and > 1000 nM in experiment [4].
`O=S(=O)(c1cccnc1)n1cc(C2CNC2)c2ccccc21` [compound 24, Azetidin-3-yl-1-(pyridine-3-sulfonyl)-1H-indole, hydrochloride]: the Ki in experiment [1] is < 10 nM; in experiment [2], > 10000 nM.
With `CCCN1CC(c2ccc3c(ccn3S(=O)(=O)c3cccc(C(F)(F)F)c3)c2)C1` [compound 25, 5-(1-propyl-azetidin-3-yl)-1-(3-trifluoromethylbenzenesulfonyl)-1H-indole, hydrochloride], the inhibition constant Ki was < 5 nM in experiment [1], > 1000 nM in experiment [2], > 250 nM in experiment [3] and > 1000 nM in experiment [4].
With `CCCN1CC(c2ccc3c(ccn3S(=O)(=O)c3cccc(OC(F)(F)F)c3)c2)C1` [compound 26, 5-(1-Propylazetidin-3-yl)-1-(3-trifluoromethoxybenzenesulfonyl)-1H-indole, hydrochloride], the inhibitory constant (Ki) in experiment [1] was < 5 nM; in experiment [2], > 1000 nM; in experiment [3], > 250 nM; in experiment [4] it was > 1000 nM.
For the molecule `CCCN1CC(c2ccc3c(ccn3S(=O)(=O)c3cccc(OC(F)F)c3)c2)C1` [compound 27, 5-(1-Propylazetidin-3-yl)-1-(3-difluoromethoxybenzenesulfonyl)-1H-indole, hydrochloride], the Ki was < 5 nM in experiment [1], > 1000 nM in experiment [2], > 250 nM in experiment [3] and > 1000 nM in experiment [4].
Take `CCN1CC(c2ccc3c(ccn3S(=O)(=O)c3ccccc3)c2)C1` [compound 28, 5-(1-Ethylazetidin-3-yl)-1-benzenesulfonyl-1H-indole, hydrochloride]: the Ki in experiment [1] was < 10 nM; in experiment [2], > 1000 nM.
For the molecule `CN1CC(c2ccc3c(ccn3S(=O)(=O)c3ccccc3)c2)C1` [compound 29, 5-(1-Methylazetidin-3-yl)-1-benzenesulfonyl-1H-indole, hydrochloride], the inhibition constant Ki is < 10 nM in experiment [1] and > 1000 nM in experiment [2].
In general, Kd refers to the equilibrium constant for the complex coming apart. Consider “iodospiperone [[^125I]-iodospiperone, reference compound]”, for which the Kd in experiment [2] (saturation binding experiments, HEK293 D2 membranes, read-out: KD of radioligand) came to 0.22 nM.
